The results in this text go back to publication PMC7718273 (Scientific Reports, 2020).

Broadly, the fraction remaining is the share of the starting amount still present when the sample was taken.

The structures appear in SMILES notation.

Data set [1] is described as follows: Plasma stability, rat. The class given is in vitro ADME. To be noted: pH 7.4, rat (R), read-out: Plasma stability (% remaining at 60 min). The protocol:
(§1) Aliquots were then transferred in duplicate to: (i) a final concentration plate that was immediately quenched with 23.6 ng/mL internal standard (IS, chlorpropamide) in acetonitrile (ACN) or (ii) tubes, which were centrifuged for 5 min at 4℃ (14,000 rpm). The samples were subjected to LC–MS/MS analysis on an AB Sciex 4000 Q Trap hybrid triple quadrupole linear ion-trap MS (AB Sciex, Framingham, MA) coupled to an Agilent 1200 HPLC (Agilent Tech. Santa Clara, CA) with a reverse-phase Kinetex XB-C18 column (2.1 × 100 mm, 2.6 µm; Phenomenex). Mobile phases were comprised of 0.1% formic acid (FA) in water (A) and 0.1 FA in ACN (B). Data analysis was performed using […] (Ver. 1.6.1).

The nature of data set [2]: Plasma stability, mouse. It is filed as in vitro ADME. To be noted: pH 7.4, mouse (M), read-out: Plasma stability (% remaining at 60 min). As for the experimental part:
as §1

Data set [3] has as its system T1, FAP.
T1 construct: from tissue; host or cells: mouse serum/plasma (ob/ob and C57BL/6J mice)
Description: In vivo study using CDAHFD mice: FAP activity at week 14. Also on record: species or system C57BL/6J mice. To be noted: 10 and 30 mg/kg p.o. for 10 weeks, vs vehicle. The protocol: C57BL/6J mice were fed normal chow diet (n = 5) or choline-deficient, L-amino acid-defined, high-fat diet (CDAHFD) for 4 weeks to induce NASH (n = 8–10/group). […] (a) Relative FAP activity was assessed by FRET-quench and serum FGF21 level at week 14. […] (c) Steatosis scores ranged from 0 to 3 (normal = 0, minimal = 1, moderate = 2, marked = 3) were determined. Hepatic steatosis and fibrosis (Picrosirius red stain) were analyzed in a blinded manner or by digital image analyzer. (d–e) Histological evaluations of liver tissue were performed in each group. Paraffin-embedded liver sections were stained with H&E (d) and Sirius red (e). Representative photographs of each group were presented. Images were obtained at 100x (Scale bar = 50 µm).
Male C57BL/6J mice (5 weeks of age) were fed with a CDAHFD consisting of 60% kcal fat and 0.1% methionine. […] For the CDAHFD model, compound treatments were started at the beginning of week 4 on the diet and continued until week 14. […] Liver tissue was then collected. All other measurements were done similarly as described above. Staining was performed using H&E and Picrosirius red as described previously. Areas of positive Sirius red were quantified by computer-based morphometric analysis.

Data set [4] deals with ob/ob mice. In words: Acute study using ob/ob mice: blood glucose and intact hFGF21. To be noted: for nonfasting blood glucose level, average: 3 h after administration.
Description: Blood was collected at the indicated time points. (a) Nonfasting blood glucose levels were measured at the indicated time points. […] (c) Plasma intact hFGF21 levels were measured using ELISA kit at 1, 3, 6, and 9 h. All data are the means ± S.D. *P < 0.05, **P < 0.01 and *** P < 0.001 vs. vehicle group.
Blood was promptly collected by orbital bleeding that was allowed to clot, and supernatant was collected after centrifugation at 4 °C at 3000 rpm. Serum intact FGF21 concentrations were measured by intact hFGF21 ELISA (Alpco, Keewaydin Dr, Salem, NH, catalog no. 43-FGFHU-E01)[29].

With `N#Cc1ccc(Cc2nc(C(=O)NCC(=O)N3CC(F)(F)C[C@H]3C#N)cs2)cc1` [BR103354, (S)-N-(2-(2-cyano-4,4-difluoropyrrolidin-1-yl)-2-oxoethyl)-2-(4-cyanobenzyl)thiazole-4-carboxamide], the fraction remaining at 1 h, 1 µM in data set [1] was 79%; in data set [2] it was 94%. Besides, the FAP activity entry in data set [3] is “inhibited in a dose-dependent manner”. The figures for the “nonfasting blood glucose level, average” value in data set [4] (20 mg/kg p.o. + hFGF21 0.1 mg/kg i.p.) and in data set [4] (50 mg/kg p.o. + hFGF21 0.1 mg/kg i.p.) were 178 mg/dL and 154 mg/dL, respectively. Further, in data set [4] (20 or 50 mg/kg p.o. + hFGF21 0.1 mg/kg i.p.), the “decrease of blood glucose AUC” value was 40–45%. For the same compound, in data set [4] (co-administered with hFGF21 0.1 mg/kg, until 3 h), the “levels of intact FGF21 in plasma” value is on record as “increased levels of intact FGF21 in plasma until 3 h”. Besides, in data set [4] (co-administered with hFGF21, after 6 h of administration), the “levels of intact FGF21” value was “lower than 10 ng/mL”.
